From ChEMBL document CHEMBL1151194, “Synthetic analogues of the microtubule-stabilizing agent (+)-discodermolide: preparation and biological activity” (J Nat Prod, 2004)

What was measured:
MCF7 = experiment: Cytotoxicity against human MCF7 cells; format: functional, cell-based
Vero = experiment: Cytotoxicity against african green monkey Vero cells; format: cell-based; settings: Chlorocebus sabaeus
PANC-1 = experiment: Cytotoxicity against human PANC1 cells; format: functional, cell-based
P388 = experiment: Cytotoxicity against mouse P388 cells; format: functional, cell-based
A549 = experiment: Cytotoxicity against human A549 cells; format: functional, cell-based
[1] = Cytotoxicity against human NCI/ADR cells; format: functional, cell-based; settings: NCI/ADR-RES

SMILES	IC50 (MCF7) [nM]	IC50 (Vero) [nM]	IC50 (PANC-1) [nM]	IC50 (P388) [nM]	IC50 (A549) [nM]	IC50 [1] [nM]
C=C/C=C\[C@H](C)[C@H](OC(N)=O)[C@@H](C)[C@H](O)[C@@H](C)CC(=C)[C@H]1[C@H](C)[C@@H](O)[C@@H](C)[C@@H]1/C=C/C[C@@H]1OC(=O)[C@H](C)[C@@H](O)[C@H]1C	130	690	330	190	100	3400
C=C/C=C\[C@H](C)[C@H](OC(N)=O)[C@@H](C)[C@H](O)[C@@H](C)/C=C(\C)[C@H]1[C@H](C)[C@@H](O)[C@@H](C)[C@@H]1/C=C/C[C@@H]1OC(=O)[C@H](C)[C@@H](O)[C@H]1C	2100	21900	6570	2130	6640	> 5000
C=C/C=C\[C@H](C)[C@H](OC(N)=O)[C@@H](C)[C@H](O)[C@@H](C)C/C(C)=C\[C@H](C)[C@H]1O[C@H](C[C@@H]2OC(=O)[C@H](C)[C@@H](O)[C@H]2C)C=C[C@@H]1C	1800	3650	3130	1000	1460	4400
C=C/C=C\[C@H](C)[C@H](OC(N)=O)[C@@H](C)[C@H](O)[C@@H](C)C/C(C)=C\[C@H](C)[C@@H](O)[C@@H](C)/C=C\[C@@H](O)C[C@@H]1OC(=O)[C@H](C)[C@@H](O[Si](C)(C)C(C)(C)C)[C@H]1C	960	420	2650	790	1990	2800
C=C/C=C\[C@H](C)[C@H](OC(N)=O)[C@@H](C)[C@H](O)[C@@H](C)C[C@@](C)(O)[C@H]1[C@H](C)[C@@H](O)[C@@H](C)[C@@H]1/C=C/C[C@@H]1OC(=O)[C@H](C)[C@@H](O)[C@H]1C (mixture of isomers)	2360	4300	3030	2420	840	> 5000
C=C/C=C\[C@H](C)[C@H](OC(N)=O)[C@@H](C)[C@H](O)[C@@H](C)C[C@](C)(O)[C@H]1[C@H](C)[C@@H](O)[C@@H](C)[C@@H]1/C=C/C[C@@H]1OC(=O)[C@H](C)[C@@H](O)[C@H]1C (relative stereo)	1730	16600	> 5000	2090	2640	> 5000
C=C/C=C\[C@H](C)[C@H](OC(N)=O)[C@@H](C)[C@H](O)[C@H](C)C[C@](C)(O)[C@H]1[C@H](C)[C@@H](O)[C@@H](C)[C@@H]1/C=C/C[C@@H]1OC(=O)[C@H](C)[C@@H](O)[C@H]1C (relative stereo)	7350	11400	> 5000	7650	> 5000	> 5000
C=C/C=C\[C@H](C)[C@H](OC(N)=O)[C@@H](C)[C@H](O)[C@@H](C)C/C(C)=C\[C@H](C)[C@@H](O)[C@@H](C)/C=C\[C@@H](O)C[C@@H]1OC(=O)[C@H](C)[C@@H](O)[C@H]1C [DISERMOLIDE]	2.4	30000	49	33	15	17
